Assay results reported in patent US10286063B2 (priority 2015, dated 2019).

Test system: PBMC
Assay type: cell-based, human

For “RGILKRNSSSSSTDS [Peptide 5-HUMAN-B, reference compound]”, the “% Inhibition by HLA-DR blocking Ab” value was 100%.
